{
  "source": "patent EP0909530A1",
  "about": "“Increased solubility of water soluble compounds” (BASF CORPORATION, priority 1997, dated 1999)",
  "test": "Crystal formation in acifluorfen solution with co-solvents after cold storage (Example 2)",
  "assay_type": "physicochemical",
  "conditions": "for Crystal Formation (%): stored at 5°C for 4 days, read at room temperature; for inhibition of precipitate: result in words",
  "protocol": "An aqueous solution having a concentration of 46.8 % acifluorfen (sodium salt, Rohm and Haas, Inc.; significant crystallization observed) was heated to about 50°C to 60°C and stirred until the crystals dissolved (about ten hours). The solution was allowed to cool to room temperature. The dispersants were separately added to the solutions containing the acifluorfen to form a 1.0% solution (by weight) of the dispersant. The resulting samples were stored at 5°C for four days.\nAfter four days, the samples were removed from storage and allowed to reach room temperature and the volume occupied by crystals was calculated (visual estimates) . The results were obtained by observation using a polarized Nikon Optiphot-2 Pol microscope.\nCo-Solvents were evaluated for their ability to inhibit precipitation of acifluorfen in aqueous solutions. The experiment was carried-out using the same steps as described for the dispersants of Example 1. The co-solvents were evaluated at 5% and 10% by total weight of the solution. The formulations were stored at 5°C for 4 days and the percent crystal volume recorded after the temperature reached room temperature. […]",
  "data": [
    {"compound": "CCCCOCCO", "note": "[Butyl Cellosolve]", "values": [
      {"measurement": "Crystal Formation (%)", "setting": "co-solvent Amount 5 %", "result": 10, "unit": "%"},
      {"measurement": "Crystal Formation (%)", "setting": "co-solvent Amount 10 %", "result": 15, "unit": "%"},
      {"measurement": "inhibition of precipitate", "result": "most significant inhibition"}
    ]},
    {"compound": "CC(O)CO", "note": "(centres unmarked) [Propylene Glycol]", "values": [
      {"measurement": "Crystal Formation (%)", "setting": "co-solvent Amount 5 %", "result": 10, "unit": "%"},
      {"measurement": "Crystal Formation (%)", "setting": "co-solvent Amount 10 %", "result": 80, "unit": "%"}
    ]},
    {"compound": "OCCO", "note": "[Ethylene Glycol]", "values": [
      {"measurement": "Crystal Formation (%)", "setting": "co-solvent Amount 5 %", "result": 10, "unit": "%"},
      {"measurement": "Crystal Formation (%)", "setting": "co-solvent Amount 10 %", "result": 15, "unit": "%"},
      {"measurement": "inhibition of precipitate", "result": "most significant inhibition"}
    ]}
  ]
}
